In assay [1] the target is T1, full-length human PIKFYVE (Homo sapiens, UniProt Q9Y2I7, L932S/Q1183K/Q995L/S1033A/S696N/T998S).
T1 construct: A full-length human PIKFYVE [1-2098(end) amino acids and S696N, L932S, Q995L, T998S, S1033A and Q1183K; purchased Carna Biosciences; host or cells: baculovirus expression system
Kind of assay: PIKfyve biochemical assay (ADP-Glo Kinase assay, Carna Biosciences). The note with it: GST-PIKFYVE, 10 μM to 3 nM in duplicate, read-out: hPIKfyve IC50. Background: ADP-Glo first removes unused ATP, then detects ADP through luciferase.

Assay [2] concerns the target T2, PIKfyve (Homo sapiens, UniProt Q9Y2I7).
T2 construct: PIKFYVE-NanoLuc® Fusion Vector (Promega) containing a full-length PIKfyve; host or cells: HEK293
Description: NanoBRET TE Intracellular Kinase Assay, K-8 (Promega) cell-based assay. To be noted: HEK293 cells transfected with PIKFYVE-NanoLuc, compounds 2 hours; read-out: hPIKfyve BRET IC50. The procedure: NanoBRET™ TE Intracellular Kinase Assay, K-8 (Promega) Cell-Based Assay. Intracellular inhibition of PIKfyve was assayed using Promega's NanoBRET™ TE Intracellular Kinase Assay, K-8 according to manufacturer's instructions. A dilution series of test compounds was added for 2 hours to HEK293 cells transfected for a minimum of 20 hours with PIKFYVE-NanoLuc® Fusion Vector (Promega) containing a full-length PIKfyve according to manufacturer's specifications in a 96-well plate. Kinase activity was detected by addition of a NanoBRET™ tracer reagent, which was a proprietary PIKfyve inhibitor appended to a fluorescent probe (BRET, bioluminescence resonance energy transfer). Test compounds were tested at concentrations of 10, 3, 1, 0.3, 0.1, 0.03, 0.01, 0.003 μM. BRET signals were measured by a GloMax® Discover Multimode Microplate Reader (Promega) using 0.3 sec/well integration time, 450BP donor filter and 600LP acceptor filters. Active test compounds that bound PIKfyve and displaced the tracer reduced BRET signal. IC50 values were then calculated by fitting the data to the normalized BRET ratio.
Background: In BRET a luciferase serves as donor, and the signal depends on an acceptor being close.

The test system of assay [3] is FAB1 TDP-43 yeast strain. Kind of assay: Propidium iodide viability assay in FAB1 TDP-43 control yeast strain. The note with it: across a range of compound concentrations (FIG. 5, 0.23 μM shown). It counts as cell-based. The procedure:
Generation of TDP-43 yeast model expressing human PIKfyve. Human PIKFYVE (“entry clone”) was cloned into pAG416GPDccdB (“destination vector”) according to standard Gateway cloning protocols (Invitrogen, Life Technologies). The resulting pAG416GPD-PIKFYVE plasmids were amplified in E. coli and plasmid identity confirmed by restriction digest and Sanger sequencing. […]
Transformed yeast were plated on solid agar plates with complete synthetic media lacking uracil (CSM-ura) and containing 2% glucose. […] Multiple independent isolates were further evaluated for cytotoxicity and TDP-43 expression levels.
Viability Assay. A control yeast strain with the wild-type yeast FAB1 gene and TDP-43 (“FAB1 TDP-43”, carries empty pAG416 plasmid), and the “PIKFYVE TDP-43” yeast strain, were assessed for toxicity using a propidium iodide viability assay. […] Wells containing DMSO alone were also evaluated as controls for compound effects. […]
Upon the completion of incubation, cultures were assayed for viability using propidium iodide (PI) to stain for dead/dying cells. […] A benchtop flow cytometer (Miltenyi MACSquant) was then used to assess red fluorescence (B2 channel), forward scatter, and side scatter (with following settings: gentle mix, high flow rate, fast measurement, 10,000 events). […]

The test system of assay [4] is PIKFYVE TDP-43 yeast strain. Kind of assay: Propidium iodide viability assay in PIKFYVE TDP-43 yeast strain. It counts as cell-based. From the text: Generation of TDP-43 yeast model expressing human PIKfyve. Human PIKFYVE (“entry clone”) was cloned into pAG416GPDccdB (“destination vector”) according to standard Gateway cloning protocols (Invitrogen, Life Technologies). The resulting pAG416GPD-PIKFYVE plasmids were amplified in E. coli and plasmid identity confirmed by restriction digest and Sanger sequencing. Lithium acetate/polyethylene glycol-based transformation was used to introduce the above PIKFYVE plasmid into a BY4741 yeast strain auxotrophic for the ura3 gene and deleted for two transcription factors that regulate the xenobiotic efflux pumps, a major efflux pump, and FAB1, the yeast ortholog of PIKFYVE (MATa, snq2::KILeu2; pdr3::Klura3;pdr1::NATMX; fab1::G418^R, his3;leu2;ura3;met15;LYS2+) (FIG. 2).
Transformed yeast were plated on solid agar plates with complete synthetic media lacking uracil (CSM-ura) and containing 2% glucose. Individual colonies harboring the control or PIKFYVE TDP-43 plasmids were recovered. A plasmid containing wild-type TDP-43 under the transcriptional control of the GAL1 promoter and containing the hygromycin-resistance gene as a selectable marker was transformed into the fab1::G418^R pAG416GPD-PIKFYVE yeast strain (FIG. 1). Transformed yeast were plated on CSM-ura containing 2% glucose and […] after overnight recovery in media lacking antibiotic. Multiple independent isolates were further evaluated for cytotoxicity and TDP-43 expression levels.
Viability Assay. A control yeast strain with the wild-type yeast FAB1 gene and TDP-43 (“FAB1 TDP-43”, carries empty pAG416 plasmid), and the “PIKFYVE TDP-43” yeast strain, were assessed for toxicity using a propidium iodide viability assay. Both yeast strains were transferred from solid CSM-ura/2% glucose agar plates into 3 mL of liquid CSM-ura/2% glucose media for 6-8 hours at 30° C. with aeration. Yeast cultures were then diluted to an optical density at 600 nm wavelength (OD600) of 0.005 in 3 mL of CSM-ura/2% raffinose and grown overnight at 30° C. with aeration to an OD600 of 0.3-0.8. Log-phase overnight cultures were diluted to OD600 of 0.005 in CSM-ura containing either 2% raffinose or galactose and 150 μL dispensed into each well of a flat bottom 96-well plates. Compounds formulated in 100% dimethyl sulfoxide (DMSO) were serially diluted in DMSO and 1.5 μL diluted compound transferred to the 96-well plates using a multichannel pipet. Wells containing DMSO alone were also evaluated as controls for compound effects. Tested concentrations ranged from 15 μM to 0.11 μM. Cultures were immediately mixed to ensure compound distribution and covered plates incubated at 30° C. for 24 hours in a stationary, humified incubator.
Upon the completion of incubation, cultures were assayed for viability using propidium iodide (PI) to stain for dead/dying cells. A working solution of PI was made where, for each plate, 1 μL of 10 mM PI was added to 10 mL of CSM-ura (raffinose or galactose). The final PI solution (50 μL/well) was dispensed into each well of a new round bottom 96-well plate. The overnight 96-well assay plate was then mixed with a multichannel pipet and 50 μL transferred to the PI-containing plate. This plate was then incubated for 30 minutes at 30° C. in the dark. A benchtop flow cytometer (Miltenyi MACSquant) was then used to assess red fluorescence (B2 channel), forward scatter, and side scatter (with following settings: gentle mix, high flow rate, fast measurement, 10,000 events). Intensity histograms were then gated for “PI-positive” or “PI-negative” using the raffinose and galactose cultures treated with DMSO as controls. The DMSO controls for raffinose or galactose-containing cultures were used to determine the window of increased cell death and this difference set to 100. All compounds were similarly gated and then compared to this maximal window to establish the percent reduction in PI-positive cells.

T2 sequence (Q9Y2I7 whole entry, the tested form may be a part): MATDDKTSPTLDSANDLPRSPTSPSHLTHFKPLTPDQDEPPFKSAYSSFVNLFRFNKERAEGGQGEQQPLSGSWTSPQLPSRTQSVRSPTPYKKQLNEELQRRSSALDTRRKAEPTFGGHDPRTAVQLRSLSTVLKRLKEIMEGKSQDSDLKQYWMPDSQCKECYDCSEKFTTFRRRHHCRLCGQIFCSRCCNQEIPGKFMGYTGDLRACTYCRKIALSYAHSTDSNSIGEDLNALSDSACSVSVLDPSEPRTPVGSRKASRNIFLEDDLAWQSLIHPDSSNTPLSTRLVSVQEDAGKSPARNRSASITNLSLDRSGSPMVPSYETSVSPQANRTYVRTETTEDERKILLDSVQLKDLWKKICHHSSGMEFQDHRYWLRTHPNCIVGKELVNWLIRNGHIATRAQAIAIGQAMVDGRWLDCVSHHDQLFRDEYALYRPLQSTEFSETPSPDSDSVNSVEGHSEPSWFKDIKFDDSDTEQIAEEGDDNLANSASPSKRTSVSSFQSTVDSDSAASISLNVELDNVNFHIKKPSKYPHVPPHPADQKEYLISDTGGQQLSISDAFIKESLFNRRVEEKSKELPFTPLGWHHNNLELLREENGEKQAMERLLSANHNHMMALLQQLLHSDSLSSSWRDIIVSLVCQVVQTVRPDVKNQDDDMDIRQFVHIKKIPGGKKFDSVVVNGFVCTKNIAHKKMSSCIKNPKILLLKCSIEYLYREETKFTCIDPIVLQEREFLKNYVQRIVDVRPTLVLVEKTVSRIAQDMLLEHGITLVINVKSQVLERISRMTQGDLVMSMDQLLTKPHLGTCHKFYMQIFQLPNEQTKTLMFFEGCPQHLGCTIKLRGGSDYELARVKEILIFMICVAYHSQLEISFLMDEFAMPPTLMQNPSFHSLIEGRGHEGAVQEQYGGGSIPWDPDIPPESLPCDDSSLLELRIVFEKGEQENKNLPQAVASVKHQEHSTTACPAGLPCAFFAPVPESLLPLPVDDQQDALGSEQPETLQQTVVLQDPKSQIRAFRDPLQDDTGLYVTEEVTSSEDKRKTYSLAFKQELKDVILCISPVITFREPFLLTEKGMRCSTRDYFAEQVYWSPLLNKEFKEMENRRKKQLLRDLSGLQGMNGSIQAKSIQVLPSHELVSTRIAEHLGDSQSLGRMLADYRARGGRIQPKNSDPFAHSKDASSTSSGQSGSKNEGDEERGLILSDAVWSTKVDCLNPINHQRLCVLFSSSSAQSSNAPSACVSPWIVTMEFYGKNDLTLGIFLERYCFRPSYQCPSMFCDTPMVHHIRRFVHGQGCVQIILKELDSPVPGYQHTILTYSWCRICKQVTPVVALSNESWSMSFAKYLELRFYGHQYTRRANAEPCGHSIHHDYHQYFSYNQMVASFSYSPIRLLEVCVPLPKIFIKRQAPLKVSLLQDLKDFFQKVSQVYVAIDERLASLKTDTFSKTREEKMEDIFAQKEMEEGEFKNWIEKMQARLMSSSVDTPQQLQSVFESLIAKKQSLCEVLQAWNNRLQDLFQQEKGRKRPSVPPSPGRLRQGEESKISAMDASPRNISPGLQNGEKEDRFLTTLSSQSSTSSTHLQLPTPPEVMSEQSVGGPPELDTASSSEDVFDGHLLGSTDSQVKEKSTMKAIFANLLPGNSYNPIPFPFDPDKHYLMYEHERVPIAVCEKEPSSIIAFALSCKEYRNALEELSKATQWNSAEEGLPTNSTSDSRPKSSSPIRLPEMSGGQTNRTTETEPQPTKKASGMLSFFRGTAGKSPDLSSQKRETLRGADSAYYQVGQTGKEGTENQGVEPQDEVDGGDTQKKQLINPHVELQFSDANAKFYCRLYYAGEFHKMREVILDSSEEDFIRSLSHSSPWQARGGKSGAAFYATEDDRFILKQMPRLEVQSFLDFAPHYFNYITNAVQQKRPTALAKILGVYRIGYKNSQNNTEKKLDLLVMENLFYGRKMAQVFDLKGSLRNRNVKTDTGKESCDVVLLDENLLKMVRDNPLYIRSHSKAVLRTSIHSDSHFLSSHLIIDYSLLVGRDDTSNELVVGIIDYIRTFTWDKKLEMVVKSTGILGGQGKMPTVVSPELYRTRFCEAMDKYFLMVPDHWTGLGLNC
T1 sequence (Q9Y2I7 whole entry S696N/L932S/Q995L/T998S/S1033A/Q1183K): as the sequence (Q9Y2I7 whole entry, the tested form may be a part) above, with S696N, L932S, Q995L, T998S, S1033A, Q1183K counted along it

What is called IC50 is the concentration that inhibits the measured activity by half. Take `c1ccc(-c2ccn(-c3nc(N4CCOCC4)c4ncccc4n3)n2)nc1` [Compound 12, 4-(2-(3-(pyridin-2-yl)-1H-pyrazol-1-yl)pyrido[3,2-d]pyrimidin-4-yl)morpholine]: the IC50 in assay [1] was 100 to 1000 nM; in assay [2] it was 1000 to 10000 nM.

Regarding `Cc1cccc(/C=N/Nc2cc(N3CCOCC3)n3nc(-c4ccncc4)cc3n2)c1` [APY0201, reference compound], the “viable cells in FAB1 TDP-43” value in assay [3] is “no increase in viable cells”. Besides, the “propidium iodide-positive dead cells in PIKFYVE TDP-43 model” value in assay [4] (0.23 μM (FIG. 6)) is given as “reduced the population of propidium iodide-positive dead cells”. Moreover, the “concentrations that afforded increased viability” value in assay [4] (PIKFYVE TDP-43 model) is listed as 0.5 mM to less than 100 nM.

With `Oc1cc(-c2ccccc2)nn1-c1nc(N2CCOCC2)c2ncccc2n1` [Compound 71, 1-(4-morpholinopyrido[3,2-d]pyrimidin-2-yl)-3-phenyl-1H-pyrazol-5-ol], the IC50 in assay [2] is over 10000 nM.

The values above are taken from patent US20250288589A1, “PYRIDOPYRIMIDINES AND METHODS OF THEIR USE” (Kineta, Inc., priority 2021, published 2025).
